“Also recorded” adds a separate entry of the source. Where two headings read alike, the source gives them in different places.
Legend:
[1] = target: human JAK2 (a.a. 828-1132) (Homo sapiens (Human), UniProt O60674); experiment: In vitro JAK kinase assay (HTRF), JAK2; assay type: biochemical; conditions: JAK2/JAK1 IC50 ratio, 1 mM ATP
Experimental: (§1) The catalytic activity of JAK1, JAK2, or JAK3 was assayed by measuring the phosphorylation of a biotinylated peptide. The phosphorylated peptide was detected by homogenous time resolved fluorescence (HTRF). […] Reactions are carried out at room temperature for 1 hour and then stopped with 20 μL 45 mM EDTA, 300 nM SA-APC, 6 nM Eu-Py20 in assay buffer (Perkin Elmer, Boston, MA). Binding to the Europium labeled antibody takes place for 40 minutes and HTRF signal was measured on a Fusion plate reader (Perkin Elmer, Boston, MA).

[2] = system: sclerodermatous chronic GVHD; experiment: Example 1: murine model of sclerodermatous chronic GVHD, itacitinib and belumosudil; assay type: in vivo, C57Bl/6 mice; conditions: PO d21-56; itacitinib 120 mg/kg BID, belumosudil 150 mg/kg QD; FIG. 1
Experimental: The effects of therapeutic dosing of a selective JAK1 inhibitor (itacitinib), a ROCK2 inhibitor (belumosudil), and a combination the selective JAK1 inhibitor and ROCK2 inhibitor (itacitinib+belumosudil) combination were tested in a murine model of sclerodermatous chronic GVHD. Sclerodermatous chronic GVHD was induced in C57Bl/6 mice using a single acute dose of 8.5 Gy of total body irradiation on Day −1. On Day 0, recipient mice were given an intravenous injection of a combination of splenocytes and bone marrow cells from donor LP/J mice. Starting at day 21, animals were dosed with vehicle, itacitinib, belumosudil, or the combination of both itacitinib and belumosudil (P.O., B.I.D, see Table 2). All animals were monitored on a daily basis to record weight change, survival and GVHD score (see Table 3). On days 33, 36, 39, 42 and 45 all animals were photographed under isoflurane anesthesia to assess disease severity. [table] [table]

GVHD = conditions: 60 mg/kg per day or 120 mg/kg per day; prophylactic and therapeutic dosing; cited from earlier work
[3] = target: human JAK1 (a.a. 837-1142) (Homo sapiens, UniProt P23458); experiment: In vitro JAK kinase assay (HTRF), JAK1; assay type: biochemical; conditions: 1 mM ATP
Experimental: as §1

acute GVHD (aGVHD) = conditions: patients, cited from earlier work
[4] = system: sclerodermatous chronic GVHD; experiment: Example 2: murine model of sclerodermatous chronic GVHD, ruxolitinib and belumosudil; assay type: in vivo, C57Bl/6 mice; conditions: PO d21-56; ruxolitinib 60 mg/kg BID, belumosudil 150 mg/kg QD; FIG. 3
Experimental: The effects of therapeutic dosing of a JAK1/2 inhibitor (ruxolitinib), a ROCK2 inhibitor (belumosudil), and a combination of the JAK1/2 inhibitor and ROCK2 inhibitor (ruxolitinib+belumosudil) combination were tested in a murine model of sclerodermatous chronic GVHD. Sclerodermatous chronic GVHD was induced in C57Bl/6 mice using a single acute dose of 8.5 Gy of total body irradiation on Day −1. On Day 0, recipient mice were given an intravenous injection of a combination of splenocytes and bone marrow cells from donor LP/J mice. Starting at day 21, animals were dosed with vehicle, ruxolitinib, belumosudil, or the combination of both ruxolitinib and belumosudil (P.O., B.I.D, see Table 4). All animals were monitored on a daily basis to record weight change, survival and GVHD score (see Table 5). On days 33, 36, 39, 42 and 45 all animals were photographed under isoflurane anesthesia to assess disease severity. [table] [table]

lung cGVHD = conditions: cited from earlier work
chronic GVHD (cGVHD) = conditions: patients; cited from earlier work

human JAK2 (a.a. 828-1132), sequence (O60674 828-1132): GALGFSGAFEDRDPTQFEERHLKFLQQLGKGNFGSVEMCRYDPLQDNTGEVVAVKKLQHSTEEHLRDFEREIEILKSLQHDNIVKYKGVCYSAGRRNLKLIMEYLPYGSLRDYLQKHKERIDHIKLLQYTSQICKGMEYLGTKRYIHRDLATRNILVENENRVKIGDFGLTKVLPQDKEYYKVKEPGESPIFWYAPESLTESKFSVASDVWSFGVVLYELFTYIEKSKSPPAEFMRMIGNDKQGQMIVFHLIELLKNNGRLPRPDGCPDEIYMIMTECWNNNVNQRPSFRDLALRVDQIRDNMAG

Row | Structure (SMILES) | JAK2/JAK1 [1] | GVHD score compared to vehicle-treated animals [2] | GVHD score (GVHD) | IC50 [3] | clinical efficacy in acute GVHD (acute GVHD (aGVHD); listed as itacitinib) | GVHD score compared to vehicle-treated animals [4] | increase in FEV1 (lung cGVHD; 1 patient) | responses (lung cGVHD; 5 pediatric patients (4 evaluable) with lung cGVHD) | patients able to wean steroids completely (lung cGVHD; 5 pediatric patients) | decrease of the steroid requirement (lung cGVHD; final patient) | clinical efficacy in acute GVHD (acute GVHD (aGVHD)) | clinical efficacy in chronic GVHD (chronic GVHD (cGVHD))
1 | N#CCC1(n2cc(-c3ncnc4[nH]ccc34)cn2)CN(C2CCN(C(=O)c3ccnc(C(F)(F)F)c3F)CC2)C1 [Compound 1, {1-{1-[3-Fluoro-2-(trifluoromethyl)isonico-tinoyl]piperidin-4-yl}-3-[4-(7H-pyrrolo[2,3-d]pyrimidin-4-yl)-1H-pyrazol-1-yl]azetidin-3-yl}acetonitrile] | >10 | reduction in GVHD scores | improvement in the GVHD score | < 10 nM | clinical efficacy; also recorded: significant clinical activity |  |  |  |  |  |  | 
2 | CC(C)NC(=O)COc1cccc(-c2nc(Nc3ccc4[nH]ncc4c3)c3ccccc3n2)c1 [belumosudil, 2-(3-(4-((1H-indazol-5-yl)amino)quinazolin-2-yl)phenoxy)-N-isopropylacetamide, reference compound] |  | reduction in GVHD scores |  |  |  | no benefit |  |  |  |  |  | 
3 | N#CC[C@H](C1CCCC1)n1cc(-c2ncnc3[nH]ccc23)cn1 [ruxolitinib, (R)-3-(4-(7H-pyrrolo[2,3-d]pyrimidin-4-yl)-1H-pyrazol-1-yl)-3-cyclopentylpropanenitrile] |  |  |  |  |  | numerical reduction in GVHD scores | 9% | 2 | Four out of five | > 50% | clinical efficacy | clinical efficacy

— US11918581B2, “Combination therapy comprising JAK pathway inhibitor and rock inhibitor” (Incyte Corporation, priority 2021, dated 2024)
